Article PMC3169403 (Acta Crystallographica Section F: Structural Biology and …, 2011)
Where two headings read alike, the source gives them in different places.

Target: T1, BpGCDH; glutaryl-CoA dehydrogenase from B. pseudomallei (Burkholderia pseudomallei, UniProt Q3JP94)
T1 construct: gene BURPS1710b_3237
Details: apo crystal without FAD, pH 7.5, individual soak 10-25 mM

T1 sequence (Q3JP94 1-395 limits assumed): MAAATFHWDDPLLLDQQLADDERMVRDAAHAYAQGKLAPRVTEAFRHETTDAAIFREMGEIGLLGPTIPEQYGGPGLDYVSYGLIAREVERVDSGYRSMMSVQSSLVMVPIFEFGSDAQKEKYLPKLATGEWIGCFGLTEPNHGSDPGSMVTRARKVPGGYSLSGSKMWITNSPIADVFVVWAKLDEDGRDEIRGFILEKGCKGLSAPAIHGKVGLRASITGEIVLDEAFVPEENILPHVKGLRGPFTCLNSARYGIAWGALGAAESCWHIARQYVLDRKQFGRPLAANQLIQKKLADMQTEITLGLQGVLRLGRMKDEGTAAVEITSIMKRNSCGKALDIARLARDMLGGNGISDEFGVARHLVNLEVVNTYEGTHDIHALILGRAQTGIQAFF

In the case of COC(=O)c1cccs1 [FOL544], the “X-ray crystal structure (fragment soak)” value (glutaryl (substrate) site, one active site per tetramer) is reported as “FOL544 (methyl thiophene-2-carboxylate; PDB entry 3d6b)”.
With CC(C)n1c(S(=O)(=O)O)nc2ccccc21 [FOL6421, 1-(1-methylethyl)-1H-benzimidazole-2-sulfonate] the “X-ray crystal structure (fragment soak)” value (glutaryl (substrate) site, all four active sites, HEPES also modelled at tetramer interface) was “FOL6421 (PDB entry 3gnc) was observed bound in all four active sites of tetrameric BpGCDH”.
In the case of CN1CCN(C)c2cc(CN)ccc21 [FOL680, (1,4-dimethyl-1,2,3,4-tetrahydroquinoxalin-6-yl)methylamine], the “X-ray crystal structure (fragment soak)” value (flavin site of FAD, second molecule in substrate site of one protomer, three per tetramer) is reported as “FOL680 occupies the binding site for the flavin ring of the FAD cofactor”.
